Values quoted from earlier work as cited in US20030157171A1 (priority 2003, published 2003).

| SMILES | water solubility at pH values below 7.0 (pH below 7.0) | water solubility (in words) |
| --- | --- | --- |
| C[C@H](CCC(=O)O)[C@H]1CC[C@H]2[C@@H]3[C@@H](O)C[C@@H]4C[C@H](O)CC[C@]4(C)[C@H]3CC[C@]12C [Ursodeoxycholic Acid] | low | – |
| COc1ccc2c(c1)c(CC(=O)O)c(C)n2C(=O)c1ccc(Cl)cc1 [Indomethacin] | – | poorly water soluble |
